The source of these data is patent US11879021B2, “Cyclic peptides and uses thereof” (UNIVERSITÉ DE MONTRÉAL, priority 2016, dated 2024).

A word on the IC50: it is the concentration needed to halve the response being measured.

Assay [1] deals with T1, CD36 (Rattus norvegicus, UniProt Q07969).
T1 construct: from tissue; host or cells: Heart (cardiac membranes) of Sprague Dawley rats from Charles River
Briefly: Competition binding of photoactivatable [125I]-Tyr-Bpa-Ala-Hexarelin to CD36 in rat cardiac membranes. To be noted: competition with [125I]-Tyr-Bpa-Ala-Hexarelin, rat heart membranes; read-out: IC50 (μM), binding affinity for CD36. How it is done:
Hearts from Sprague Dawley rats (300-325 g) from Charles River were cut into small pieces and homogenized with a Polytron® at low speed, 3×15 sec in buffer A (10 mM NaHCO3, 5 mM NaN3, 10 μM Pefabloc®, 0.1 μM Aprotinin, 1 μM Pepstatin A, 1 μM Leupeptin, pH 7.0) at a concentration of […] of tissue. The homogenate was first centrifuged at 8,700×g for 20 min in a Sorvall® centrifuge and the supernatant was collected on ice. The pellet was resuspended and re-homogenized with a Glass-Teflon® Potter by 5 strokes. This homogenate was recentrifuged at 8,700×g for 10 min and the resulting supernatant was combined with the first collected supernatant. The combined supernatant was centrifuged at 35,000×g for 20 min. The pellet fraction obtained was resuspended in Buffer B (20 mM Tris-maleate, 0.6M KCl, pH 6.8) in a volume corresponding to 20 mL/g of fresh tissue using a glass homogenizer with a Teflon pestle. The resulting suspension was centrifuged again at 35,000×g for 60 min. and the pellet fraction obtained was resuspended in Buffer C (10 mM Tris/HCl buffer pH 7.4) and thoroughly homogenized in a glass with a Teflon® pestle (20 ml/g of fresh tissue). This suspension was submitted to another centrifugation at 35,000×g for 60 min. The collected pellet was resuspended in 50 mM Tris/HCl buffer pH 7.4) containing 2 mM EGTA in a final volume corresponding to 1-2 mL/g of fresh tissue. The membrane preparation obtained was frozen at −80° C. Protein concentration was determined using the bicinchoninic acid (BCA) method, employing BSA as standard.
The reaction was started by adding 3 nmol of H2O2 for 5 min at room temperature. This step was repeated twice with a period of 5 min of incubation for each addition. The reaction was stopped by diluting the mixture with 1 mL of 0.1% TFA. The radioiodinated peptide was purified by HPLC on a reverse-phase Vydac® C18 column with a 60-min linear gradient from 20% to 50% of acetonitrile in 0.1% TFA. The eluted radiolabelled tracer was collected, aliquoted (50×10^6 cpm/fraction) and stored at −80° C.
Binding studies with MPE-298 were done with increasing concentrations from 0.01 to 5 μM of competition ligands. Nonspecific binding was defined as binding not displaced by 50 μM corresponding peptide. All peptide containing solutions were diluted in Buffer B. Buffer A and B were degassed under vacuum, and used in capped tubes in order to minimize lipid peroxidation. Before the incubation period, all tubes were put under a low flow of nitrogen. All material was kept on ice and the binding assay was performed in darkness. After an incubation period of 60 min at 22° C. (vortexing every 15 min), membranes were submitted to irradiation with UV lamps (365 nm) for 15 min at 4° C. After centrifugation at 12,000×g for 15 minutes, the pellets were resuspended in 40 μl of sample buffer (62 mM Tris-HCl, pH 6.8, 2% SDS, 10% glycerol, 15% 2-mercaptoethanol, and 0.05% bromophenol blue), and boiled for 5 min prior to being subjected to electrophoresis. Proteins (50 μg/40 μl) were separated on a 7.5% SDS-PAGE Bio-Rad® Mini-Protean electrophoresis system (150 V for 1 h). The gels resulting from SDS/PAGE were fixed, colored in Coomassie Brilliant Blue R-250, dried, exposed to a storage phosphor intensifying screen (Amersham Biosciences), and analysed using a Typhoon® PhosphorImager (GE Healthcare Life Sciences®). […] The curves were analysed by using software package (Graphpad® prism version 7.0).

For assay [2], the system named is R-FSL-1 (TLR2 agonist)-induced NO production in RAW macrophage cell line. Briefly: Nitric oxide (NO) production induced by TLR2 agonist R-FSL-1 in RAW macrophage cell line. It counts as cell-based, murine. To be noted: RAW macrophages. How it is done:
The murine RAW1 macrophage cell line was obtained from American Type Cell Collection (ATCC #TIB-71), seeded at 1.5×10^5 cells/well in Dulbecco's Modified Eagle's medium (DMEM) containing 100 U/mL of penicillin (Pen) and 100 μg/mL of streptomycin (Strep) on a 48-well plate (Costar® #3548), and incubated at 37° C. with 5% CO2. After 2 h, the cell culture medium of adhered cells was removed and replaced by DMEM-Pen/Strep medium containing 0.2% of bovine serum albumin (BSA), and supplemented with the cyclic peptides at a concentration of 10^−6 or 10^−7 M. MPE-001 (DBG178, His-D-Trp-Ala-AzaTyr-D-Phe-Lys-NH2) and [azaLys^6]-GHRP-6 (His-D-Trp-Ala-Trp-D-Phe-azaLys-NH2, negative control) at 10^−6 M were used as positive and negative controls, respectively. After 1 h pre-incubation, the cells were stimulated overnight using the TLR2 ligand fibroblast-stimulating lipopeptide (R-FSL-1) (Invivogen® #L7022) at a concentration of 300 ng/mL. Supernatants were then collected for nitrite production analysis by fluorescence using 2,3-diaminonaphthalene (DAN). Briefly, 25 μL of sample was incubated with 0.5 μg of DAN in a 100 μL final volume of phosphate buffer (50 mM, pH 7.5) at room temperature in the dark. After 15 min, the reaction was stopped with 20 μL of NaOH (2.8N) and the plate was read using a fluorescence plate reader (TECAN® Safire, λexc 365 nm and λem 430 nm).

Assay [3] has as its system apoE−/− mice. Briefly: Murine atherosclerosis model (apoE−/− mice on atherogenic diet), aortic lesions. To be noted: 300 nmol/kg daily s.c. for 8 weeks. Type of assay: in vivo. How it is done:
Experiments were performed in male apoE−/− mice fed an atherogenic diet (D12108, cholate-free AIN-76A semi-purified diet, Research Diets Inc., New Brunswick, NJ) from 4 weeks of age. MPE-298 (300 nmol/kg), MPE-267 (300 nmol/kg) or vehicle (0.9% NaCl), were administered by daily by subcutaneous (s.c.) injections for 8 weeks, from 12 weeks of age, as shown schematically in FIG. 8A.

T1 sequence (Q07969 whole entry): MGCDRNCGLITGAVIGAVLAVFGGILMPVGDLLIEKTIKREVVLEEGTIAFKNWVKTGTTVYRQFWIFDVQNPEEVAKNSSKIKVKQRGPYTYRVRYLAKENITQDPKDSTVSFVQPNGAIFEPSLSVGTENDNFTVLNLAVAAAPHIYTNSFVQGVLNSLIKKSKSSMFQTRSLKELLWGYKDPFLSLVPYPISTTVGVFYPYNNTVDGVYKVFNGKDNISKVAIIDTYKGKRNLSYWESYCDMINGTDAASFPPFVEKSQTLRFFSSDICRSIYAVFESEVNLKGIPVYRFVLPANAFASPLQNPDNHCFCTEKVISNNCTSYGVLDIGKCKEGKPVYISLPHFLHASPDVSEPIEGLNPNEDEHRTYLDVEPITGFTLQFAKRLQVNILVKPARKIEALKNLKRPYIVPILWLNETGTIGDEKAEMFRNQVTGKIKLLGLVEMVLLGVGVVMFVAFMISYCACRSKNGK

As to `C=CCN1CC#CCN(NC(=O)[C@H](C)N)C(=O)N[C@H](Cc2c[nH]c3ccccc23)C(=O)N[C@@H](C)C(=O)N[C@@H](Cc2c[nH]c3ccccc23)C(=O)N[C@H](Cc2ccccc2)C(=O)N[C@H](C(N)=O)CCCC1` [MPE-298], in assay [1], the IC50 was found to be 0.07 µM. The “suppression of NO production compared with positive control MPE-001 at the same concentration” value in assay [2] (10^−7 M, FIG. 4F) is recorded as “more important”. Moreover, the “suppression of R-FSL-1-mediated NO production at 10^−7 M” value in assay [2] (10^−7 M, further analyses, FIG. 4F) is given as “significant suppression”. For the same molecule, the “suppression of R-FSL-1-mediated NO production” value in assay [2] (at the concentration tested (10^−6 or 10^−7 M), FIGS. 4A to 4F) is reported as “significant suppression”. In addition, the “reduction of aortic lesions relative to 0.9% NaCl (vehicle)” value in assay [3] was found to be 42%.
